Measured values reported in patent US12202835B2, “Substituted aromatic ring-linked dioxinoquinazolines and dioxinoquinolines as kinase inhibitors” (BEIJING SCITECH-MQ PHARMACEUTICALS LIMITED, priority 2018, dated 2025).

Experiments:
c-MET kinase = c-MET kinase (Homo sapiens (Human), UniProt P08581); assay: Assay of small molecular compounds for inhibiting the activity of c-MET kinase (LANCE TR-FRET); format: biochemical; conditions: read-out: CMET IC50
In short: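 Eleven final concentrations from 2500 nM down to 0.042 nM, in 4% DMSO, were tested against human c-MET (2× stock 2 nM), with compound and enzyme premixed for 5 min. The phosphorylation reaction used 4× stock of 400 nM ULight-JAK-1 peptide and 40 μM ATP for 60 min at room temperature, then stop and detection steps. TR-FRET percent inhibition against positive and negative controls gave the IC50.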

VEGFR-2 kinase = VEGFR-2 kinase (Homo sapiens (Human), UniProt P35968); assay: Assay of small molecular compounds for inhibiting the activity of VEGFR-2 kinase (LANCE TR-FRET); format: biochemical; conditions: read-out: VEGFR2 IC50
In short: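 LANCE TR-FRET with human VEGFR-2 (2× stock 0.5 nM) preincubated 30 min with compound (final 2500 to 0.042 nM, 11-point 3-fold), then ULight-JAK-1 (Tyr1023) peptide/ATP added (4× stocks 200 nM/40 μM). Reaction 60 min room temperature, 4% DMSO; IC50 from inhibition-rate curve.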

EBC1 cells = assay: Assay for inhibiting the proliferation of EBC1 cells (CCK-8); format: cell-based; conditions: Homo sapiens, EBC-1
In short: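 Cells seeded in 96-well plates overnight, then exposed 72 h to 9 three-fold dilutions of compound (0.25% DMSO final). Viability by CCK-8 (1-2 h at 37° C., OD 450 nm), survival normalized to untreated and cell-free blanks; IC50 by curve fitting.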

Sequence of VEGFR-2 kinase (P35968 20-1356): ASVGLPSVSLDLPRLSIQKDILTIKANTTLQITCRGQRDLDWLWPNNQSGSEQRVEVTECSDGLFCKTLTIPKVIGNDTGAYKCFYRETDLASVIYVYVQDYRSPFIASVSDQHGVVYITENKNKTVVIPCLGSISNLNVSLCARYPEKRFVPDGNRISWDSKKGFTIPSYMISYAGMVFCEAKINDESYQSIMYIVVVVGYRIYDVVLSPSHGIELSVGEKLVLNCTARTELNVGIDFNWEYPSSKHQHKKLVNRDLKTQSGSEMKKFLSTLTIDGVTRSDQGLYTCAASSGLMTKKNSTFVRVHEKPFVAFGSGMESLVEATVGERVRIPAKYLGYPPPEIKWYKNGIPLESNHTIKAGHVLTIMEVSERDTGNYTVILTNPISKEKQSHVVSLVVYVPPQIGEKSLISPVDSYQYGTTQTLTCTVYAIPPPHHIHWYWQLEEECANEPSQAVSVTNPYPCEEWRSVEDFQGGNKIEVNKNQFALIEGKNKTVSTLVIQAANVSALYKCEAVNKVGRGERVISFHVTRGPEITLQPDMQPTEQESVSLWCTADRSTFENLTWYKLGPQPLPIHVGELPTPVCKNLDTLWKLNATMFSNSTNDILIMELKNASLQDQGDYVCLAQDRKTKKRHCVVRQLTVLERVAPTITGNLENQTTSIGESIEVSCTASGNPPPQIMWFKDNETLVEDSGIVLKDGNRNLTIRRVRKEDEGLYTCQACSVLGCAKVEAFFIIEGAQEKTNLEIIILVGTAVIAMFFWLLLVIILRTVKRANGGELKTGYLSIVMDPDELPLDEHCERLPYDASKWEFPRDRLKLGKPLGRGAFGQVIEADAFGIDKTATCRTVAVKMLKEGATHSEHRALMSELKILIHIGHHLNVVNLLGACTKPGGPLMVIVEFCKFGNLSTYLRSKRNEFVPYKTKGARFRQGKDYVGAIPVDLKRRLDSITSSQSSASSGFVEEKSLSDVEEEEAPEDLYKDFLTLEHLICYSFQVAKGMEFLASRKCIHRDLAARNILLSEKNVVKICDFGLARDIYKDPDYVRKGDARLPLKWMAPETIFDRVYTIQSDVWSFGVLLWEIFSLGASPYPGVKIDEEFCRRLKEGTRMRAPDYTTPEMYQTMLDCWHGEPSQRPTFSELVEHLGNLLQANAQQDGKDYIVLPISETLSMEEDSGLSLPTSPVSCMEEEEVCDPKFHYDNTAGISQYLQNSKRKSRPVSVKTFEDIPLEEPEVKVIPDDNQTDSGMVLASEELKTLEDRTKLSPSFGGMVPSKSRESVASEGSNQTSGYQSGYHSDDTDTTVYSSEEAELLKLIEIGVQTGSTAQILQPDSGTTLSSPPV
Sequence of c-MET kinase (P08581 25-1390): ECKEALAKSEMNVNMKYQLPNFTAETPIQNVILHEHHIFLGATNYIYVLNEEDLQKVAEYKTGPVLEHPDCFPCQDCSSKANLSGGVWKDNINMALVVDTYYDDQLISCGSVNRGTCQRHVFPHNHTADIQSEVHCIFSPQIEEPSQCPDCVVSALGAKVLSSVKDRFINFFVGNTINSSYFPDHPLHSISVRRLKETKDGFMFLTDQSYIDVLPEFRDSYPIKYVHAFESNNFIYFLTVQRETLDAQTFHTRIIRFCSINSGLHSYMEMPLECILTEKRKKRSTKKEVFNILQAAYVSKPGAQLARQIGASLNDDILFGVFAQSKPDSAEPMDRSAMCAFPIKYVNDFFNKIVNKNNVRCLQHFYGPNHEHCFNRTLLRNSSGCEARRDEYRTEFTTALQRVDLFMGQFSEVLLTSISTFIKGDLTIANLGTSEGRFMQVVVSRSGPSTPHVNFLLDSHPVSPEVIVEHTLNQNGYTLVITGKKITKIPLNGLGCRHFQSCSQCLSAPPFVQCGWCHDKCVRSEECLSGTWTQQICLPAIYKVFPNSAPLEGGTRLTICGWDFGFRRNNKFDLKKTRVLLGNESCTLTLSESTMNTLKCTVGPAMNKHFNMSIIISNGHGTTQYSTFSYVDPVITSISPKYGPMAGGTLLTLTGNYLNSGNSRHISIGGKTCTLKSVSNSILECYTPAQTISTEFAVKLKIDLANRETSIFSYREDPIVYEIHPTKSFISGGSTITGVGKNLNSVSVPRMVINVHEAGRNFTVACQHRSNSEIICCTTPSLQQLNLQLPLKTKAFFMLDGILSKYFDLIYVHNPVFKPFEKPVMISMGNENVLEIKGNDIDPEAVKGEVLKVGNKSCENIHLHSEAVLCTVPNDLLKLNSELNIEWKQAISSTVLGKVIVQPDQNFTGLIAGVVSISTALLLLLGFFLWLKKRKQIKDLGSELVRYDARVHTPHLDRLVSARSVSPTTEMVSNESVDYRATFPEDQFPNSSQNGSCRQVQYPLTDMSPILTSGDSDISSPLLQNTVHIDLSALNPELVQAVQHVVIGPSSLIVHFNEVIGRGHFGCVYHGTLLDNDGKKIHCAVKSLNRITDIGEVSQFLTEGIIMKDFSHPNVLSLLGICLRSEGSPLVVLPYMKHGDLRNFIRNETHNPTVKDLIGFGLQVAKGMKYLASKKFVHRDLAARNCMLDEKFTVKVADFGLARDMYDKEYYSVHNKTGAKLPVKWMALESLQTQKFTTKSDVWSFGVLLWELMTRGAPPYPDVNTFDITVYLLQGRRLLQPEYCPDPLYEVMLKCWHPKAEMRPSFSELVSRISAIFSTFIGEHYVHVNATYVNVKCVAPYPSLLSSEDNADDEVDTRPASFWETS

| Compound | IC50 (c-MET kinase) | IC50 (VEGFR-2 kinase) | IC50 (EBC1 cells) |
| --- | --- | --- | --- |
| CCn1cc(C(=O)Nc2ccc(Oc3ccnc4cc(OCCOC)c5c(c34)OCCO5)c(F)c2)c(=O)n(-c2ccc(F)cc2)c1=O [Example 44, N-(3-fluoro-4-((5-(2-methoxyethoxy)-2,3-dihydro-[1,4]dioxino[2,3-f]quinolin-10-yl)oxy)phenyl)-3-(4-fluorophenyl)-1-ethyl-2,4-dioxo-1,2,3,4-tetrahydropyrimidine-5-carboxamide] | ≤ 50 nM | 50 to 500 nM | ≤ 50 nM |
| COc1cc2ncnc(Oc3ccc(NC(=O)c4cccn(-c5ccc(F)cc5)c4=O)cc3F)c2c2c1OCCO2 [Example 1, N-(3-fluoro-4-((5-methoxy-2,3-dihydro-[1,4]dioxino[2,3-f]quinazolin-10-yl)oxy)phenyl)-1-(4-fluorophenyl)-2-oxo-1,2-dihydropyridine-3-carboxamide] | ≤ 50 nM | ≤ 50 nM | 50 to 200 nM |
| CCOc1ccn(-c2ccc(F)cc2)c(=O)c1C(=O)Nc1ccc(Oc2ccnc3cc(OCCCO)c4c(c23)OCCO4)c(F)c1 [Example 54, N-(4-((5-(3-hydroxypropoxy)-2,3-dihydro-[1,4]dioxino[2,3-f]quinolin-10-yl)oxy)-3-fluorophenyl)-4-ethoxy-1-(4-fluorophenyl)-2-oxo-1,2-dihydropyridine-3-carboxamide] | ≤ 50 nM | ≤ 50 nM | ≤ 50 nM |
| CCOc1ccn(-c2ccc(F)cc2)c(=O)c1C(=O)Nc1ccc(Oc2ccnc3cc(OCCCOC)c4c(c23)OCCO4)c(F)c1 [Example 55, N-(4-((5-(3-methoxypropoxy)-2,3-dihydro-[1,4]dioxino[2,3-f]quinolin-10-yl)oxy)-3-fluorophenyl)-4-ethoxy-1-(4-fluorophenyl)-2-oxo-1,2-dihydropyridine-3-carboxamide] | ≤ 50 nM | 50 to 500 nM | ≤ 50 nM |
| CCOc1ccn(-c2ccc(F)cc2)c(=O)c1C(=O)Nc1ccc(Oc2ccnc3cc(OC(C)C)c4c(c23)OCCO4)c(F)c1 [Example 63, N-(4-((5-isopropoxy-2,3-dihydro-[1,4]dioxino[2,3-f]quinolin-10-yl)oxy)-3-fluorophenyl)-4-ethoxy-1-(4-fluorophenyl)-2-oxo-1,2-dihydropyridine-3-carboxamide] | ≤ 50 nM | 50 to 500 nM | ≤ 50 nM |
| CCOc1ccn(-c2ccc(F)cc2)c(=O)c1C(=O)Nc1ccc(Oc2ccnc3cc(OCCCN4CCN(C(C)=O)CC4)c4c(c23)OCCO4)c(F)c1 [Example 50, N-(4-((5-(3-(4-acetyl-piperazin-1-yl)propoxy)-2,3-dihydro-[1,4]dioxino[2,3-f]quinolin-10-yl)oxy)-3-fluorophenyl)-4-ethoxy-1-(4-fluorophenyl)-2-oxo-1,2-dihydropyridine-3-carboxamide] | ≤ 50 nM | ≤ 50 nM | ≤ 50 nM |
| CCOc1ccn(-c2ccc(F)cc2)c(=O)c1C(=O)Nc1ccc(Oc2ncnc3cc(OC)c4c(c23)OCCO4)c(F)c1 [Example 3, N-(3-fluoro-4-((5-methoxy-2,3-dihydro-[1,4]dioxino[2,3-f]quinazolin-10-yl)oxy)phenyl)-1-(4-fluorophenyl)-4-ethoxy-2-oxo-1,2-dihydropyridine-3-carboxamide] | ≤ 50 nM | 50 to 500 nM | 50 to 200 nM |
| CCOc1ccn(-c2ccc(F)cc2)c(=O)c1C(=O)Nc1ccc(Oc2ccnc3cc(OC4CCOC4)c4c(c23)OCCO4)c(F)c1 (stereo not drawn) [Example 65, N-(4-((5-((tetrahydrofuran-3-yl)oxy)-2,3-dihydro-[1,4]dioxino[2,3-f]quinolin-10-yl)oxy)-3-fluorophenyl)-4-ethoxy-1-(4-fluorophenyl)-2-oxo-1,2-dihydropyridine-3-carboxamide] | ≤ 50 nM | 50 to 500 nM | ≤ 50 nM |
| CCOc1ccn(-c2ccc(F)cc2)c(=O)c1C(=O)Nc1ccc(Oc2ccnc3cc(OCCO)c4c(c23)OCCO4)c(F)c1 [Example 53, N-(4-((5-(2-hydroxyethoxy)-2,3-dihydro-[1,4]dioxino[2,3-f]quinolin-10-yl)oxy)-3-fluorophenyl)-4-ethoxy-1-(4-fluorophenyl)-2-oxo-1,2-dihydropyridine-3-carboxamide] | ≤ 50 nM | ≤ 50 nM | ≤ 50 nM |
| CCOc1ccn(-c2ccc(F)cc2)c(=O)c1C(=O)Nc1ccc(Oc2ccnc3cc(OCCCN4CCS(=O)(=O)CC4)c4c(c23)OCCO4)c(F)c1 [Example 51, N-(4-((5-(3-(1,1-dioxidothiomorpholino)propoxy)-2,3-dihydro-[1,4]dioxino[2,3-f]quinolin-1 0-yl)oxy)-3-fluorophenyl)-4-ethoxy-1-(4-fluorophenyl)-2-oxo-1,2-dihydropyridine-3-carboxamide] | ≤ 50 nM | ≤ 50 nM | ≤ 50 nM |
| CCOc1ccn(-c2ccc(F)cc2)c(=O)c1C(=O)Nc1ccc(Oc2ccnc3cc(OC4COC4)c4c(c23)OCCO4)c(F)c1 [Example 64, N-(4-((5-((oxetan-3-yl)oxy)-2,3-dihydro-[1,4]dioxino[2,3-f]quinolin-10-yl)oxy)-3-fluorophenyl)-4-ethoxy-1-(4-fluorophenyl)-2-oxo-1,2-dihydropyridine-3-carboxamide] | ≤ 50 nM | 50 to 500 nM | 50 to 200 nM |
| CCOc1ccn(-c2ccc(F)cc2)c(=O)c1C(=O)Nc1ccc(Oc2ccnc3cc(OC4CCOCC4)c4c(c23)OCCO4)c(F)c1 [Example 66, N-(4-((5-((tetrahydropyran-4-yl)oxy)-2,3-dihydro-[1,4]dioxino[2,3-f]quinolin-10-yl)oxy)-3-fluorophenyl)-4-ethoxy-1-(4-fluorophenyl)-2-oxo-1,2-dihydropyridine-3-carboxamide] | ≤ 50 nM | 50 to 500 nM | ≤ 50 nM |

Second part, led by results:

| IC50 (c-MET kinase) | IC50 (VEGFR-2 kinase) | Compound | IC50 (EBC1 cells) |
| --- | --- | --- | --- |
| ≤ 50 nM | ≤ 50 nM | CCOc1ccn(-c2ccc(F)cc2)c(=O)c1C(=O)Nc1ccc(Oc2ccnc3cc(OCCCN4CCC(C)(O)CC4)c4c(c23)OCCO4)c(F)c1 [Example 69, N-(4-((5-(3-(4-hydroxy-4-methylpiperidin-1-yl)propoxy)-2,3-dihydro-[1,4]dioxino[2,3-f]quinolin-10-yl)oxy)-3-fluorophenyl)-4-ethoxy-1-(4-fluorophenyl)-2-oxo-1,2-dihydropyridine-3-carboxamide] | ≤ 50 nM |
| ≤ 50 nM | ≤ 50 nM | CCOc1ccn(-c2ccc(F)cc2)c(=O)c1C(=O)Nc1ccc(Oc2ccnc3cc(OCCCN(C)CCOC)c4c(c23)OCCO4)c(F)c1 [Example 70, N-(4-((5-(3-((2-methoxyethyl)(methyl)amino)propoxy)-2,3-dihydro-[1,4]dioxino[2,3-f]quinolin-10-yl)oxy)-3-fluorophenyl)-4-ethoxy-1-(4-fluorophenyl)-2-oxo-1,2-dihydropyridine-3-carboxamide] | ≤ 50 nM |
| ≤ 50 nM | 50 to 500 nM | CCOc1ccn(-c2ccc(F)cc2)c(=O)c1C(=O)Nc1ccc(Oc2ccnc3cc(OCCCN4CCOCC4)c4c(c23)OCCO4)cc1Cl [Example 73, N-(2-chloro-4-((5-(3-morpholinopropoxy)-2,3-dihydro-[1,4]dioxino[2,3-f]quinolin-10-yl)oxy)phenyl)-4-ethoxy-1-(4-fluorophenyl)-2-oxo-1,2-dihydropyridine-3-carboxamide] | ≤ 50 nM |
| ≤ 50 nM | ≤ 50 nM | CCOc1ccn(-c2ccc(F)cc2)c(=O)c1C(=O)Nc1ccc(Oc2ccnc3cc(OCCCN4CCC(C)(C)CC4)c4c(c23)OCCO4)c(F)c1 [Example 67, N-(4-((5-(3-(4,4-dimethylpiperidin-1-yl)propoxy)-2,3-dihydro-[1,4]dioxino[2,3-f]quinolin-10-yl)oxy)-3-fluorophenyl)-4-ethoxy-1-(4-fluorophenyl)-2-oxo-1,2-dihydropyridine-3-carboxamide] | ≤ 50 nM |
| ≤ 50 nM | ≤ 50 nM | CCOc1ccn(-c2ccc(F)cc2)c(=O)c1C(=O)Nc1ccc(Oc2ccnc3cc(OCCCN(C)C4CCC4)c4c(c23)OCCO4)c(F)c1 [Example 71, N-(4-((5-(3-(cyclobutyl(methyl)amino)propoxy)-2,3-dihydro-[1,4]dioxino[2,3-f]quinolin-10-yl)oxy)-3-fluorophenyl)-4-ethoxy-1-(4-fluorophenyl)-2-oxo-1,2-dihydropyridine-3-carboxamide] | ≤ 50 nM |
| ≤ 50 nM | ≤ 50 nM | CCOc1ccn(-c2ccc(F)cc2)c(=O)c1C(=O)Nc1ccc(Oc2ccnc3cc(OCCCN4CCOCC4)c4c(c23)OCCO4)c(Cl)c1 [Example 72, N-(4-((5-(3-morpholinopropoxy)-2,3-dihydro-[1,4]dioxino[2,3-f]quinolin-10-yl)oxy)-3-chlorophenyl)-4-ethoxy-1-(4-fluorophenyl)-2-oxo-1,2-dihydropyridine-3-carboxamide] | ≤ 50 nM |
| ≤ 50 nM | ≤ 50 nM | CCOc1ccn(-c2ccc(F)cc2)c(=O)c1C(=O)Nc1ccc(Oc2ccnc3cc(OCCCN4CCC(C)(N)CC4)c4c(c23)OCCO4)c(F)c1 [Example 68, N-(4-((5-(3-(4-amino-4-methylpiperidin-1-yl)propoxy)-2,3-dihydro-[1,4]dioxino[2,3-f]quinolin-10-yl)oxy)-3-fluorophenyl)-4-ethoxy-1-(4-fluorophenyl)-2-oxo-1,2-dihydropyridine-3-carboxamide] | ≤ 50 nM |
